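These data come from cells grown in 96-well plates and exposed to compound for 48 hours at five concentrations. Abbreviation: GI50, concentration required for 50% inhibition of growth.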 Active and inactive are the calls of the source. Cut-off read from the data, not from the text of the source: active = GI50 up to about 1.1 µM and inactive = higher.
Experiments:
Experiment in all cases: NCI-60 cell line screen, 48 h
COLO 205 = tested on: COLO 205
Malme-3M = tested on: Malme-3M
MDA-N = tested on: MDA-N
SW-620 = tested on: SW-620
HL-60 = tested on: HL-60
SK-OV-3 = tested on: SK-OV-3
K562 = tested on: K562
EKVX = tested on: EKVX
OVCAR-5 = tested on: OVCAR-5
CCRF-CEM = tested on: CCRF-CEM
A549 = tested on: A549
DU-145 = tested on: DU-145
SK-MEL-5 = tested on: SK-MEL-5
MOLT-4 = tested on: MOLT-4
KM12 = tested on: KM12
SR = tested on: SR
SK-MEL-2 = tested on: SK-MEL-2
NCI/ADR-RES = tested on: NCI/ADR-RES
UO-31 = tested on: UO-31
M19-MEL = tested on: M19-MEL

SMILES	GI50 (COLO 205)	GI50 (Malme-3M)	GI50 (MDA-N)	GI50 (SW-620)	GI50 (HL-60)	GI50 (SK-OV-3)	GI50 (K562)	GI50 (EKVX)	GI50 (OVCAR-5)	GI50 (CCRF-CEM)	GI50 (A549)	GI50 (DU-145)	GI50 (SK-MEL-5)	GI50 (MOLT-4)	GI50 (KM12)	GI50 (SR)	GI50 (SK-MEL-2)	GI50 (NCI/ADR-RES)	GI50 (UO-31)	GI50 (M19-MEL)
O=C(O)c1ccc(NCc2nc3cc4ccccc4cc3[nH]2)cc1	> 100 µM (inactive)	0.0462 µM (active)	> 100 µM (inactive)	> 100 µM (inactive)	> 20.5 µM (inactive)	> 100 µM (inactive)	> 100 µM (inactive)	> 100 µM (inactive)	> 100 µM (inactive)	> 100 µM (inactive)	> 100 µM (inactive)	> 100 µM (inactive)	> 21.4 µM (inactive)	> 100 µM (inactive)	> 100 µM (inactive)	> 100 µM (inactive)	24.7 µM (inactive)	> 100 µM (inactive)	> 100 µM (inactive)	–
O=C(O)/C=C\C(=O)Nc1ccc2c(c1)C(=O)c1cc(F)ccc1-2	> 100 µM (inactive)	> 100 µM (inactive)	> 100 µM (inactive)	> 100 µM (inactive)	> 100 µM (inactive)	> 100 µM (inactive)	> 100 µM (inactive)	> 100 µM (inactive)	> 100 µM (inactive)	> 100 µM (inactive)	> 100 µM (inactive)	> 100 µM (inactive)	> 100 µM (inactive)	> 100 µM (inactive)	> 100 µM (inactive)	> 100 µM (inactive)	> 100 µM (inactive)	> 100 µM (inactive)	> 100 µM (inactive)	–
CC1=NN=C(NCCN(C)C)C/C1=C/c1ccccc1Cl	> 100 µM (inactive)	27.6 µM (inactive)	–	> 100 µM (inactive)	–	> 100 µM (inactive)	–	> 100 µM (inactive)	79.1 µM (inactive)	–	> 100 µM (inactive)	–	48.6 µM (inactive)	–	> 100 µM (inactive)	–	> 100 µM (inactive)	–	> 100 µM (inactive)	> 100 µM (inactive)
C=C1C(=O)O[C@H]2C[C@@]3(C)[C@H](O)CCC(=C)[C@@H]3[C@@H](OC(C)=O)[C@H]12	0.953 µM (active)	1.45 µM (inactive)	4.31 µM (inactive)	4.85 µM (inactive)	2.19 µM (inactive)	30.2 µM (inactive)	2.63 µM (inactive)	15.5 µM (inactive)	3.27 µM (inactive)	1 µM (active)	14.7 µM (inactive)	10.9 µM (inactive)	12.1 µM (inactive)	3.13 µM (inactive)	16.4 µM (inactive)	2.22 µM (inactive)	15.9 µM (inactive)	21.8 µM (inactive)	13.5 µM (inactive)	–
CN1CCc2cc3c(c4c2C1C(O)c1ccccc1-4)OCO3 (stereo not drawn)	4.95 µM (inactive)	8 µM (inactive)	5.08 µM (inactive)	7.53 µM (inactive)	2.23 µM (inactive)	21.4 µM (inactive)	4.57 µM (inactive)	7.83 µM (inactive)	8.24 µM (inactive)	2.41 µM (inactive)	3.89 µM (inactive)	9.73 µM (inactive)	7.98 µM (inactive)	2.98 µM (inactive)	7.52 µM (inactive)	4.6 µM (inactive)	9.59 µM (inactive)	6.47 µM (inactive)	6.1 µM (inactive)	–
Cc1cc2c(cc1C)[n+]([O-])c(-c1c(Cl)cccc1Cl)c(N)[n+]2[O-]	18.7 µM (inactive)	31.1 µM (inactive)	–	35.1 µM (inactive)	26 µM (inactive)	66.4 µM (inactive)	32 µM (inactive)	46.3 µM (inactive)	> 100 µM (inactive)	–	30.1 µM (inactive)	–	20.7 µM (inactive)	26.2 µM (inactive)	37.2 µM (inactive)	–	31.6 µM (inactive)	–	30.3 µM (inactive)	34.9 µM (inactive)
COc1ccc(/C=C(/C)[N+](=O)[O-])cc1	2.08 µM (inactive)	2.11 µM (inactive)	2.05 µM (inactive)	2.01 µM (inactive)	2.62 µM (inactive)	5.98 µM (inactive)	2.62 µM (inactive)	2.13 µM (inactive)	3.19 µM (inactive)	0.565 µM (active)	4.21 µM (inactive)	2.36 µM (inactive)	2.48 µM (inactive)	1.37 µM (inactive)	1.67 µM (inactive)	0.419 µM (active)	4.95 µM (inactive)	3.41 µM (inactive)	1.67 µM (inactive)	–
CC1=NN(C(=O)CC(=O)Nc2ccccc2C)C(=O)C1/N=N\c1ccc(S(=O)(=O)c2ccc(/N=N/C3C(=O)N(C(=O)CC(=O)Nc4ccccc4C)N=C3C)cc2)cc1 (stereo not drawn)	> 100 µM (inactive)	> 100 µM (inactive)	> 100 µM (inactive)	> 10 µM (inactive)	> 100 µM (inactive)	> 100 µM (inactive)	> 100 µM (inactive)	> 100 µM (inactive)	> 100 µM (inactive)	> 100 µM (inactive)	> 100 µM (inactive)	> 100 µM (inactive)	62.2 µM (inactive)	> 100 µM (inactive)	> 100 µM (inactive)	> 100 µM (inactive)	> 100 µM (inactive)	> 100 µM (inactive)	> 100 µM (inactive)	–
O=c1oc2ccccc2cc1-c1csc(Nc2cc(Cl)cc(Cl)c2)n1	18 µM (inactive)	11.7 µM (inactive)	29.2 µM (inactive)	11.9 µM (inactive)	> 90.8 µM (inactive)	> 34.6 µM (inactive)	> 100 µM (inactive)	> 55.6 µM (inactive)	> 100 µM (inactive)	25.2 µM (inactive)	4.51 µM (inactive)	31.2 µM (inactive)	> 56.1 µM (inactive)	> 43 µM (inactive)	> 27.5 µM (inactive)	> 20 µM (inactive)	> 100 µM (inactive)	6.59 µM (inactive)	2.77 µM (inactive)	–
Fc1ccc(Oc2nc3ccc(C(F)(F)F)cc3nc2-c2ccccc2)cc1	> 100 µM (inactive)	38 µM (inactive)	99.5 µM (inactive)	> 10 µM (inactive)	87.3 µM (inactive)	81.5 µM (inactive)	> 10 µM (inactive)	> 100 µM (inactive)	> 100 µM (inactive)	> 10 µM (inactive)	36.6 µM (inactive)	> 100 µM (inactive)	68.1 µM (inactive)	46 µM (inactive)	> 100 µM (inactive)	24.3 µM (inactive)	60 µM (inactive)	> 100 µM (inactive)	44.3 µM (inactive)	–
CN(C)CCCN1CCC2(CCC(C(C)(C)C)CC2)CC1	1.51 µM (inactive)	1.89 µM (inactive)	0.912 µM (active)	2.4 µM (inactive)	0.603 µM (active)	9.29 µM (inactive)	0.266 µM (active)	5.33 µM (inactive)	3.08 µM (inactive)	1.58 µM (inactive)	3.27 µM (inactive)	6.71 µM (inactive)	1.61 µM (inactive)	1.77 µM (inactive)	2.38 µM (inactive)	1.42 µM (inactive)	1.75 µM (inactive)	5.08 µM (inactive)	1.56 µM (inactive)	–
